Test results as given in patent US20110212899A1, “Corneal Neuritogenesis Promoter Containing Pacap and Its Derivative” (priority 2004, published 2011).
Where no end group is shown, it is not given here.

Tested on: cultured rabbit trigeminal nerve cells
Experiment: Promoting effect on neuritogenesis in cultured rabbit trigeminal nerve cells (2) (Test Example 4)
Format: cell-based
Settings: cultured for 48 hours, control group 20.7%
From the text: Japanese white rabbits (2 to 3 days old) purchased from Kitayama Labes Co., Lid. were used.
Rabbit trigeminal nerve cells were isolated according to a method reported by Chan et al. (Kwan Y. Chan and Richard H. Haschke, Exp. Eye Res. 41: 687-699, 1985). The rabbit was subjected to cardiac perfusion with physiological saline under ether anesthesia. A trigeminal ganglion was excised from the rabbit, and then dispersed in a nerve dispersion liquid (Sumitomo Bakelite Co., Ltd.) to prepare trigeminal nerve cells. The trigeminal nerve cells were cultured in Neurobasal medium (Invitrogen Corp) supplemented with B27 Supplement (Invitrogen Corp; final concentration: 2% v/v) and L-glutamine (Invitrogen Corp; final concentration: 1 mM) under 5% CO2 and 95% air at a humidity of 100% and a temperature of 37° C. […]
For evaluating neuritogenesis in the cultured rabbit trigeminal nerve cells, the length of the longest neurite and the major axis of the cell body in the stained cell images scanned into the computer were measured using image analysis software (Image-Pro Plus ver. 4.0, Planetron, Inc.) The cells in 3 wells for each group were measured. […] The proportion (%) of the neurite forming cells in the total cell number was calculated (Otori, Y., Wei, J. Y., Barnstable, C. J., Invest. Opthalmol. Vis. Sic., (1998)39, 972-981). […]

With “His-Ser-Asp-Ala-Ile-Phe-Thr-Asp-Ser-Tyr-Ser-Arg-Tyr-Arg-Arg-Gln-Leu-Ala-Val-Arg-Arg-Tyr-Leu-Ala-Ala-Val-Leu-Gly-Arg-Arg-NH2 (HSDAIFTDSYSRYRRQLAVRRYLAAVLGRR-NH2) [Peptide 24]” the “proportion (%) of the neurite forming cells in the total cell number” value (0.1 μM) was 42.5% and the “proportion (%) of the neurite forming cells in the total cell number” value (1 μM) was 51.4%.
